We go through 16 compounds from patent publication US10519138B2, “Modulators of SOCE, compositions, and uses thereof” (Università degli Studi del Piemonte Orientale “Amedeo …, priority 2016, dated 2019).

Molecules are shown by their SMILES. pIC50: −log10 of the molar value. Several values for one entry are separate records, joined by “and”; a condition that tells them apart may be missing. Equal entries are not always repeated.

In assay [1] the test system is Store Operated Calcium Entry (SOCE) in BV-2 cells. As to the kind of experiment: Fluo-4 fluorimetric assay of tBHQ-induced store operated calcium entry in BV-2 cells. The note with it: for inhibition at 10 µM: Mus musculus, SOCE inhibition based on tBHQ-induced calcium influx; for % Activation (10 μM): potentiation of calcium entry. It is filed as cell-based, mouse. Here is the method:
(A) BV-2 cells were plated in poly-d-lysine coated 24-well plate and incubated overnight. After 24 hours, cells were loaded with 2 μM Fluo-4 and placed in an extracellular solution containing 0 mM Ca^2+. Stores were depleted with 50 μM tBHQ and calcium influx was stimulated by the addition of 2 mM Ca^2+ alone (Ctrl), or in conbination with: compound with no activity (NM-3A), and compounds that positively (4-(1-(4-(3,5-bis(trifluoromethyl)-1H-pyrazol-1-yl)phenyl)-1H-1,2,3-triazol-4-yl)benzoic acid) and negatively (3-(1-(4-(4-(ethoxycarbonyl)-5-(trifluoromethyl)-1H-pyrazol-1-yl)phenyl)-1H-1,2,3-triazol-4-yl)benzoic acid) regulate SOCE. Calcium responses are expressed as changes in fluorescence intensity before and after the addition of selected modulators. (B) BV-2 cells were assayed for a calcium response to different concentrations of 3-(1-(4-(4-(ethoxycarbonyl)-5-(trifluoromethyl)-1H-pyrazol-1-yl)phenyl)-1H-1,2,3-triazol-4-yl)benzoic acid and 4-(1-(4-(3,5-bis(trifluoromethyl)-1H-pyrazol-1-yl)phenyl)-1H-1,2,3-triazol-4-yl)benzoic acid (0.1-0.3-1-3-10-30-100 μM) using Fluo-4 fluorimetric assay. Concentration-response curves represent the AUC % of both compounds as compared to positive control.
Immortalized primary mouse microglial BV-2 cells were obtained from ATCC (ATCC® CRL-2540™, Rockville, Md., USA) and were cultured in Dulbecco's Modified Eagle's Medium (DMEM; Sigma-Aldrich, Italy), supplemented with 10% heat-inactivated FBS (Gibco, Italy), 1-glutamine 50 mg/mL (Sigma-Aldrich, Italy), penicillin 10 U/mL and streptomycin […] (Sigma-Aldrich, Italy) at 37° C., under a 5% CO2 humidified atmosphere. For experiments, the cells were plated 2×10^4 per ml in 24 well plates) or onto glass coverslips at concentrations of 4×10^4 per mL (24 mm diame-ter coverslips in 6 well plates).
BV-2 cells were loaded with 5 μM Fluo-4 AM in presence of 0.02% of Pluronic-127 (both from Life Technologies, Italy) and 10 μM sulfinpyrazone in Krebs-Ringer buffer (KRB, 135 mM NaCl, 5 mM KCl, 0.4 mM KH2PO4, 1 mM MgSO4, 5.5 mM glucose, 20 mM HEPES, pH 7.4) containing 2 mM CaCl2 (30 min, room temperature). Subsequently, cells were washed and incubated with KRB for other 30 min to allow de-esterification of Fluo-4 AM. Experiments were carried out prior to and during exposure of the cells to the Ca^2+-free solution. In the absence of Ca^2+, the intracellular Ca^2+ stores were depleted by 2,5-t-butylhydroquinone (tBHQ, 50 μM; Sigma-Aldrich, Italy), a SERCA poison, and then calcium 2 mM was re-added to the extracellular solution. Fluorescence is then monitored sequentially for a second in each well for 600 seconds with excitation at 494 nm and an emission wavelength at 516 nm on the V3 Victor plate-reader (Perkin Elmer), generating time-curves for each well. Data were analysed using Microsoft Excel and GraphPad Prism.
The percentage of SOCE inhibition for each compound was determined based on value of tBHQ-induced calcium influx into BV-2 cells (Table 2).

Assay [2] deals with Store Operated Calcium Entry (SOCE) in Jurkat cells. Kind of assay: Fura-2 single-cell Ca2+ measurement of tBHQ-induced SOCE in Jurkat cells. Type of assay: cell-based, human. The note with it: for inhibition at 10 µM: Homo sapiens, SOCE modulation based on tBHQ-induced calcium influx. Here is the method:
Immortalized line of human T lymphocyte Jurkat cells were achieved from ATCC (ATCC® TIB-152™, Rockville, Md., USA) and were cultured in Roswell Park Memorial Institute Medium (RPMI 1640; Sigma-Aldrich, Italy), supplemented with 10% heat-inactivated FBS (Gibco, Italy), 1-glutamine 50 mg/mL (Sigma-Aldrich, Italy), penicillin 10 U/mL and streptomycin […] (Sigma-Aldrich, Italy) at 37° C., under a 5% CO2 humidified atmosphere. For experiments, the cells were plated onto glass coverslips at concentrations of 6×10^4 per mL (24 mm diameter coverslips in 6 well plates).
Compounds were also tested on Jurkat cells in single-cell analysis using Fura-2 AM on cover-slips. Jurkat cells were loaded with 5 μM Fura-2 AM in presence of 0.02% of Pluronic-127 (both from Life Technologies, Italy) and 1 μM sulfinpyrazone in Krebs-Ringer buffer (KRB, 135 mM NaCl, 5 mM KCl, 0.4 mM KH2PO4, 1 mM MgSO4, 5.5 mM glucose, 20 mM HEPES, pH 7.4) containing 2 mM CaCl2 (30 min, room temperature). Afterwards, cells were washed and incubated with KRB for other 30 min to allow de-esterification of Fura-2AM. To measure store operated calcium entry, changes in cytosolic Ca^2+ were monitored upon depletion of the intracellular Ca^2+ stores. Experiments were carried out prior to and during exposure of the cells to the Ca^2+-free solution. In the absence of Ca^2+, the intracellular Ca^2+ stores were depleted by inhibition of the vesicular Ca^2+ pump by 2,5-t-butylhydroquinone (tBHQ, 50 μM; Sigma-Aldrich, Italy). Re-addition of 2 mM Ca^2+ allowed assessing the SOCE. During the experiments the cover-slips were mounted into acquisition chamber and placed on the stage of a Leica DMI6000 epi-fluorescent microscope equipped with S Fluor ×40/1.3 objective. Fura-2 was excited by alternate 340 and 380 nm using a Polychrome IV mono-chromator (Till Photon-ics, Germany) and the probe emission light was filtered through 520/20 band-pass filter and collected by a cooled CCD camera (Hamamatsu, Japan). The fluorescence signals were acquired and processed using MetaFluor software (Molecular Device, Sun-Nyvale, C A, USA). To quantify the differences in the amplitudes of Ca^2+ transients the ratio values were normalized using the formula ΔF/F0 (referred to as normalized Fura-2 ratio, “Norm. Fura ratio”). The percentage of SOCE modulation for each of 15 compounds was determined based on value of tBHQ-induced calcium influx into Jurkat cells. Data were analysed using Microsoft Excel and GraphPad Prism.

The target of assay [3] is ICRAC (Homo sapiens, UniProt Q96D31). The conditions noted are these: read-out: IC50 (inhibition of ICRAC); cited from earlier work.
ICRAC, sequence (Q96D31 whole entry): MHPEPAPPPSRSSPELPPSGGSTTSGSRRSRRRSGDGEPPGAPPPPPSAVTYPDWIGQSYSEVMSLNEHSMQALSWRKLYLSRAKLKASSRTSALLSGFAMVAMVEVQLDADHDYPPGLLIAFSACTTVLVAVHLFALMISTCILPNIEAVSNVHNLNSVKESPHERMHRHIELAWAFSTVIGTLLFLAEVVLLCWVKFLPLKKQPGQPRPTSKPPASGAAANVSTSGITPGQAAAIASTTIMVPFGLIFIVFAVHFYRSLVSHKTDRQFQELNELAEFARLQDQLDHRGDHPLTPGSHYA

The inhibition is the share of the control response that was lost under treatment. Regarding `CC(C)OC(=O)c1cnn(-c2ccc(-n3cc(-c4cccc(C(=O)O)c4)nn3)cc2)c1C(F)(F)F` [3-(1-(4-(4-(isopropoxycarbonyl)-5-(trifluoromethyl)-1H-pyrazol-1-yl)phenyl)-1H-1,2,3-triazol-4-yl)benzoic acid], the inhibition at 10 µM in assay [1] was determined as 74.6%; in assay [2], 93.9%. For `CCOC(=O)c1cnn(-c2ccc(-c3cn(-c4cccc(C(=O)O)c4)nn3)cc2)c1C(F)(F)F` [3-(4-(4-(4-(ethoxycarbonyl)-5-(trifluoromethyl)-1H-pyrazol-1-yl)phenyl)-1H-1,2,3-triazol-1-yl)benzoic acid] the same measures were 43.3% and 63.6%. For `O=C(O)c1cccc(-c2cn(-c3ccc(-n4ncc(C(=O)OCCN5CCOCC5)c4C(F)(F)F)cc3)nn2)c1` [3-(1-(4-(4-((2-morpholinoethoxy)carbonyl)-5-(trifluoromethyl)-1H-pyrazol-1-yl)phenyl)-1H-1,2,3-triazol-4-yl)benzoic acid] the same measures were 95.7% and 25.1%. For `COC(=O)c1cnn(-c2ccc(-n3cc(-c4cccc(C(=O)O)c4)nn3)cc2)c1C(F)(F)F` [3-(1-(4-(4-(methoxycarbonyl)-5-(trifluoromethyl)-1H-pyrazol-1-yl)phenyl)-1H-1,2,3-triazol-4-yl)benzoic acid] the same measures were 12.4% and 21.8%. For the compound `CCOC(=O)c1cnn(-c2ccc(-c3cn(-c4ccc(Cl)cc4)nn3)cc2)c1C(F)(F)F` [ethyl 1-(4-(1-(4-chlorophenyl)-1H-1,2,3-triazol-4-yl)phenyl)-5-(trifluoromethyl)-1H-pyrazole-4-carboxylate], the “% Activation (10 μM)” value in assay [1] was 47.07%; in assay [2], 122.94% and 126.78% and 97.32%. As for `CCOC(=O)c1cnn(-c2ccc(-c3cn(-c4ccncc4F)nn3)cc2)c1C(F)(F)F` [ethyl 1-(4-(1-(3-fluoropyridin-4-yl)-1H-1,2,3-triazol-4-yl)phenyl)-5-(trifluoromethyl)-1H-pyrazole-4-carboxylate], the inhibition at 10 µM in assay [1] came out at 37.7%; in assay [2], 32.9%.

For `O=C(O)c1cccc(-n2cc(-c3ccc(-n4nc(C(F)(F)F)cc4C(F)(F)F)cc3)nn2)c1` [3-(4-(4-(3,5-bis(trifluoromethyl)-1H-pyrazol-1-yl)phenyl)-1H-1,2,3-triazol-1-yl)benzoic acid], the values for the inhibition at 10 µM in assay [1] and in assay [2] were 30.5% and 39.7%, respectively. `O=C(O)c1ccc(-c2cn(-c3ccc(-n4nc(C(F)(F)F)cc4C(F)(F)F)cc3)nn2)cc1` [4-(1-(4-(3,5-bis(trifluoromethyl)-1H-pyrazol-1-yl)phenyl)-1H-1,2,3-triazol-4-yl)benzoic acid]: the “% Activation (10 μM)” value in assay [1] stood at 125.15%; in assay [2] it was 136.42%. In addition, the “Regulation of SOCE (calcium response, representative traces FIG. 2A)” value in assay [1] (Fluo-4, 50 μM tBHQ, 2 mM Ca2+ re-addition) is given as “positively”. Consider `CCOC(=O)c1cnn(-c2ccc(-n3cc(-c4ccc(C(=O)O)cc4)nn3)cc2)c1C(F)(F)F` [4-(1-(4-(4-(ethoxycarbonyl)-5-(trifluoromethyl)-1H-pyrazol-1-yl)phenyl)-1H-1,2,3-triazol-4-yl)benzoic acid], for which the inhibition at 10 µM in assay [1] came to 40.1%; in assay [2], 32.3%.

With `O=C(O)c1cccc(-c2cn(-c3ccc(-n4nc(C(F)(F)F)cc4C(F)(F)F)cc3)nn2)c1` [3-(1-(4-(3,5-bis(trifluoromethyl)-1H-pyrazol-1-yl)phenyl)-1H-1,2,3-triazol-4-yl)benzoic acid], the inhibition at 10 µM in assay [1] was 38.7%; in assay [2] it was 38.3%. For `O=C(O)c1cccc(-c2cn(-c3ccc(-n4ncc(C(=O)OCc5ccccc5)c4C(F)(F)F)cc3)nn2)c1` [3-(1-(4-(4-((benzyloxy)carbonyl)-5-(trifluoromethyl)-1H-pyrazol-1-yl)phenyl)-1H-1,2,3-triazol-4-yl)benzoic acid] the same measures were 87% and 33.5%. Turning to `O=C(O)c1cnn(-c2ccc(-c3cn(-c4ccc(Cl)cc4)nn3)cc2)c1C(F)(F)F` [1-(4-(1-(4-chlorophenyl)-1H-1,2,3-triazol-4-yl)phenyl)-5-(trifluoromethyl)-1H-pyrazole-4-carboxylic acid], in assay [2], the “% Activation (10 μM)” value worked out at 100.13%. As to `O=C(O)c1cccc(-c2cn(-c3ccc(-n4ncc(C(=O)OCc5ccncc5)c4C(F)(F)F)cc3)nn2)c1` [3-(1-(4-(4-((pyridin-4-ylmethoxy)carbonyl)-5-(trifluoromethyl)-1H-pyrazol-1-yl)phenyl)-1H-1,2,3-triazol-4-yl)benzoic acid], the results for the inhibition at 10 µM in assay [1] and in assay [2] were 54.6% and 57%, respectively.

As for `CCOC(=O)c1cnn(-c2ccc(-c3cn(CCCC(=O)O)nn3)cc2)c1C(F)(F)F` [4-(4-(4-(4-(ethoxycarbonyl)-5-(trifluoromethyl)-1H-pyrazol-1-yl)phenyl)-1H-1,2,3-triazol-1-yl)butanoic acid], the inhibition at 10 µM in assay [1] was 30.1%; in assay [2], 19.1%. The pIC50 is −log10 of the IC50, conventionally taken in molar units. With `COc1ccc(OC)c(-c2ccc(NC(=O)c3ccncc3F)cc2)c1` [Synta66], the pIC50 in assay [3] is 6.52.

As for `CCOC(=O)c1cnn(-c2ccc(-n3cc(-c4ccc(O)c(OC)c4)nn3)cc2)c1C(F)(F)F` [ethyl 1-(4-(4-(4-hydroxy-3-methoxyphenyl)-1H-1,2,3-triazol-1-yl)phenyl)-5-(trifluoromethyl)-1H-pyrazole-4-carboxylate], the results for the inhibition at 10 µM in assay [1] and in assay [2] were 35% and 78.4%, respectively.
